Literature values in PMC11187573, “Identification of SARS-CoV-2 Mpro inhibitors through deep reinforcement learning for de novo drug design and computational chemistry approaches” (RSC Medicinal Chemistry, 2024).
Like-named read-outs stand apart in the source and are kept apart here.

Tests used:
Mpro = settings: ML dataset, cited from earlier work
[1] = tested on: SARS, SARS-CoV-2 and MERS Mpro; settings: cited from earlier work
[2] = Origin COVID_Moonshot, ref COVID Moonshot

| Compound | IC50 (Mpro; [2]) | IC50 [1, 2] | IC50 (Mpro; Origin ChEMBL, ref ChEMBL) | IC50 ([1]; Origin ChEMBL, ref ChEMBL) |
| --- | --- | --- | --- | --- |
| C[C@@H]1C[C@H](C(=O)Nc2cncc3ccccc23)c2cc(Cl)ccc2O1 [MAT-POS-8a69d52e-2, C[C@H](C[C@@H]1C(Nc2cncc3ccccc23)=O)Oc(cc2)c1cc2Cl, reference compound] | 1670 nM | 679 nM | – | – |
| CC(C)(C)c1ccc(N(C(=O)c2ccc(Cl)o2)C(C(=O)NCCc2cccc(F)c2)c2cccnc2)cc1 (stereo not drawn) [MAT-POS-f2460aef-4, CC(C)(C)c(cc1)ccc1N(C(C(NCCc1cc(F)ccc1)=O)c1cnccc1)C(c(o1)ccc1Cl)=O, reference compound] | 415 nM | 315 nM | – | – |
| O=C(Nc1cncc2ccccc12)C1CCCc2ccc(Cl)cc21 (stereo not drawn) [ALP-POS-477dc5b7-1, O=C(C(CCC1)c2c1ccc(Cl)c2)Nc1cncc2ccccc12, reference compound] | 307 nM | 324 nM | – | – |
| CN1CC[C@@]2(C)c3cc(O)ccc3N(C)[C@@H]12 [CHEMBL1256915, C[C@]12c(cc(cc3)O)c3N(C)[C@H]1N(C)CC2, reference compound] | – | – | 1990 nM | 1990 nM |
| COc1cccc2[nH]c(=O)cc(C(=O)N3CCN(c4cccc(Cl)c4)CC3)c12 [MAT-POS-3b536971-2, COc(cccc1N2)c1C(C(N(CC1)CCN1c1cccc(Cl)c1)=O)=CC2=O, reference compound] | 3260 nM | 4680 nM | – | – |
| O=C(Nc1cncc2ccccc12)N(CCC1CCCCC1)c1cccc(Cl)c1 [EDJ-MED-c314995a-1, O=C(Nc1cncc2ccccc12)N(CCC1CCCCC1)c1cccc(Cl)c1, reference compound] | 621 nM | 261 nM | – | – |
| c1ccc2sc(SNC3CCCCC3)nc2c1 [CHEMBL1591074, C(CC1)CCC1NSc1nc(cccc2)c2s1, reference compound] | – | – | 770 nM | 770 nM |
| CN(C)c1ccc(N(Cc2cccc(Cl)c2)C(=O)Cn2nnc3ccccc32)cc1 [ALP-POS-6d04362c-2, CN(C)c(cc1)ccc1N(Cc1cccc(Cl)c1)C(Cn1nnc2c1cccc2)=O, reference compound] | 444 nM | 497 nM | – | – |
| O=c1sn(-c2cccc3ccccc23)c(=O)n1Cc1ccccc1 [CHEMBL3545157, O=C(N1Cc2ccccc2)N(c2cccc3ccccc23)SC1=O, reference compound] | – | – | 115 nM | 115 nM |
| O=C(c1cncc2ccccc12)N1CCN(c2cccc(Cl)c2)CC1 [MAT-POS-54c4bf04-3, O=C(c1cncc2ccccc12)N(CC1)CCN1c1cccc(Cl)c1, reference compound] | 1220 nM | 1600 nM | – | – |
| Nc1ccc(O)c2ncccc12 [CHEMBL449298, Nc(c1cccnc11)ccc1O, reference compound] | – | – | 2050 nM | 2050 nM |
| COc1cc(C(=S)N2CCOCC2)ccc1O [CHEMBL1380480, COc(cc(cc1)C(N2CCOCC2)=S)c1O, reference compound] | – | – | 1320 nM | 1320 nM |
| N#Cc1ccc(CN2CCC(C3CCNC3)CC2)cc1 (stereo not drawn) [LON-WEI-4d77710c-32, N#Cc1ccc(CN(CC2)CCC2C2CNCC2)cc1, reference compound] | 1710 nM | 2060 nM | – | – |
| O=C1N(Cc2cccc(Cl)c2)CCN1c1nccc2[nH]ncc12 [ALP-POS-91609ae9-3, O=C(N(Cc1cccc(Cl)c1)CC1)N1c1nccc2c1cn[nH]2, reference compound] | 3730 nM | 4560 nM | – | – |
| Cc1c(-c2cnccn2)ssc1=S [CHEMBL178459, CC1=C(c2nccnc2)SSC1=S, reference compound] | – | – | 415 nM | 415 nM |
| COc1nc2ccc(Br)cc2cc1[C@@H](c1ccccc1)[C@@](O)(CCN(C)C)c1cccc2ccccc12 [CHEMBL376488, CN(C)CC[C@]([C@H](c1ccccc1)c(cc(cc(cc1)Br)c1n1)c1OC)(c1cccc2ccccc12)O, reference compound] | – | – | 4360 nM | 4360 nM |
| CC(CN1CC(=O)NC(=O)C1)N1CC(=O)NC(=O)C1 (stereo not drawn) [CHEMBL444186, CC(CN(CC(N1)=O)CC1=O)N(CC(N1)=O)CC1=O, reference compound] | – | – | 3190 nM | 3190 nM |
| O=C1OC(c2cccs2)=N/C1=C\c1ccc(N2CCOCC2)s1 [MAT-POS-fa06b69f-6] | 701 nM | 696 nM | – | – |
| CC(C)Nc1cccnc1N1CCN(C(=O)c2cc3cc(NS(C)(=O)=O)ccc3[nH]2)CC1 [CHEMBL929, CC(C)Nc1cccnc1N(CC1)CCN1C(c1cc(cc(cc2)NS(C)(=O)=O)c2[nH]1)=O, reference compound] | – | – | 3990 nM | 3990 nM |
| O=C(Cc1cncc2ccccc12)N(CCC1CCCCC1)c1cccc(Cl)c1 [MAT-POS-173a45da-1, O=C(Cc1cncc2ccccc12)N(CCC1CCCCC1)c1cccc(Cl)c1, reference compound] | 1570 nM | 2110 nM | – | – |
| COC(=O)c1c(C)n(S(C)(=O)=O)c2ccc(N(C(=O)c3ccco3)S(C)(=O)=O)cc12 [LON-WEI-4d77710c-11, Cc1c(C(OC)=O)c(cc(cc2)N(C(c3ccco3)=O)S(C)(=O)=O)c2n1S(C)(=O)=O, reference compound] | 635 nM | 935 nM | – | – |
| Cc1cc(C)c(C#N)c(Sc2ncnc3c2nnn3Cc2ccccc2)n1 [LON-WEI-4d77710c-73, Cc(cc(C)nc1Sc2ncnc3c2nnn3Cc2ccccc2)c1C#N, reference compound] | 452 nM | 649 nM | – | – |
| O=C(O)[C@@H](c1ccccc1)N1Cc2ccccc2C1=O [LON-WEI-4d77710c-19, OC([C@@H](c1ccccc1)N(Cc1c2cccc1)C2=O)=O, reference compound] | 1470 nM | 1780 nM | – | – |
| CC(C)(C)c1ccc(N(C(=O)c2c[nH]cn2)C(C(=O)NCCc2cccc(F)c2)c2cccnc2)cc1 (stereo not drawn) [MAT-POS-f2460aef-3, CC(C)(C)c(cc1)ccc1N(C(C(NCCc1cccc(F)c1)=O)c1cnccc1)C(c1c[nH]cn1)=O, reference compound] | 671 nM | 292 nM | – | – |

| Compound | IC50 (Mpro; [2]) | IC50 [1, 2] | IC50 (Mpro; Origin ChEMBL, ref ChEMBL) | IC50 ([1]; Origin ChEMBL, ref ChEMBL) |
| --- | --- | --- | --- | --- |
| C[C@@H]1C[C@@H](C(=O)Nc2cncc3ccccc23)c2cc(Cl)ccc2O1 [EDJ-MED-e4b030d8-2, C[C@H](C[C@H]1C(Nc2cncc3ccccc23)=O)Oc(cc2)c1cc2Cl, reference compound] | 378 nM | 231 nM | – | – |
| O=[N+]([O-])c1cnc(Sc2nnc(O)n2-c2ccc3c(c2)OCCO3)s1 [CHEMBL508280, [O-][N+](c1cnc(Sc(n2-c(cc3)cc4c3OCCO4)nnc2O)s1)=O] | – | – | – | 2050 nM |
| O=C1C2CC=CCC2C(=O)N1SC(Cl)(Cl)Cl (stereo not drawn) [CHEMBL388676, O=C(C(CC=CC1)C1C1=O)N1SC(Cl)(Cl)Cl] | – | – | – | 670 nM |
| CC=C1C(OC2OC(CO)C(O)C(O)C2O)OC=C(C(=O)OC)C1CC(=O)OCCc1ccc(O)c(O)c1 (stereo not drawn) [CHEMBL4303154, CC=C(C1CC(OCCc(cc2)cc(O)c2O)=O)C(OC(C(C2O)O)OC(CO)C2O)OC=C1C(OC)=O] | – | – | – | 3380 nM |
| C=CC(=O)c1ccc2ccccc2c1 [CHEMBL154580, C=CC(c1cc2ccccc2cc1)=O] | – | – | – | 1240 nM |
| Cc1cc(Cl)cc(CC2CCN(C(=O)CCl)CC2)c1 [NIR-THE-0d6461ce-8, Cc1cc(Cl)cc(CC(CC2)CCN2C(CCl)=O)c1] | – | 3570 nM | – | – |
| O=C1c2c(O)cc(O)cc2O[C@H](c2cc(O)c(O)c(O)c2)[C@H]1O [CHEMBL3348861, O[C@H]([C@@H](c(cc1O)cc(O)c1O)Oc1c2c(O)cc(O)c1)C2=O] | – | – | – | 180 nM |
| Oc1cc2c(cc1O)[C@H]1c3ccccc3CN[C@@H]1CC2 [CHEMBL1256832, Oc(cc(CC[C@H]([C@@H]12)NCc3c2cccc3)c1c1)c1O] | – | – | – | 1050 nM |
| C=C1C(=O)[C@]23[C@H](O)[C@H]1CC[C@@H]2[C@]12CO[C@]3(O)C[C@@H]1C(C)(C)CC[C@@H]2O [CHEMBL4303503, CC(C)(CC1)[C@@H](C[C@@]([C@@]([C@@H]2O)([C@@H]3CC[C@H]2C2=C)C2=O)(O)OC2)[C@@]23[C@H]1O] | – | – | – | 2570 nM |
| COc1ccc(C2CC(c3cccs3)=NN2C(=O)CCl)cc1OC (stereo not drawn) [MAT-POS-916a2c5a-1, COc(ccc(C(C1)N(C(CCl)=O)N=C1c1cccs1)c1)c1OC] | – | 1870 nM | – | – |
| Cc1coc2c1C(=O)C(=O)c1c-2ccc2c(C)cccc12 [CHEMBL363535, Cc1coc(-c(ccc2c(C)cccc22)c2C2=O)c1C2=O] | – | – | – | 700 nM |
| N#Cc1cccc(C2CN(C(=O)CCl)Cc3ccccc32)c1 (stereo not drawn) [NIR-THE-c331be7a-2, N#Cc1cccc(C(CN(C2)C(CCl)=O)c3c2cccc3)c1] | – | 1170 nM | – | – |
| Cc1cc(C(=O)CCl)c(C)n1CC1COc2ccccc2O1 (stereo not drawn) [TAT-ENA-80bfd3e5-32, Cc1cc(C(CCl)=O)c(C)n1CC1Oc(cccc2)c2OC1] | – | 2820 nM | – | – |
| O=C(CCl)N1CCN(S(=O)(=O)C2=CC[SH]=C2)CC1 [MAK-UNK-d4768348-1, O=C(CCl)N(CC1)CCN1S(C1=CCS=C1)(=O)=O] | – | 1630 nM | – | – |
| O=C(CCl)N1CCN(S(=O)(=O)c2c(F)cccc2F)CC1 [LON-WEI-8f408cad-2, O=C(CCl)N(CC1)CCN1S(c(c(F)ccc1)c1F)(=O)=O] | – | 3280 nM | – | – |
| O=C(O)c1ccc(SSc2ccc(C(=O)O)cn2)nc1 [CHEMBL1161936, OC(c(cc1)cnc1SSc(cc1)ncc1C(O)=O)=O] | – | – | – | 240 nM |
| O=C1C(=O)N(Cc2cc3ccccc3s2)c2c1cccc2[N+](=O)[O-] [CHEMBL187717, [O-][N+](c(cccc1C2=O)c1N(Cc1cc(cccc3)c3s1)C2=O)=O] | – | – | – | 2000 nM |
| O=c1c(O)cccc2cc(O)c(O)c(O)c12 [CHEMBL66953, Oc(cc(C=CC=C(C1=O)O)c1c1O)c1O] | – | – | – | 4580 nM |
| O=C1C(Cl)=C(N2CCOCC2)C(=O)N1c1ccc(Cl)c(Cl)c1 [CHEMBL1271993, O=C(C(N1CCOCC1)=C(C1=O)Cl)N1c(cc1)cc(Cl)c1Cl] | – | – | – | 2840 nM |
| COc1cc(CN2CCN(C(=O)CCl)CC2)c2ccccc2c1 [DAR-DIA-fb20be43-7, COc1cc2ccccc2c(CN(CC2)CCN2C(CCl)=O)c1] | – | 2750 nM | – | – |
| O=C1C(Cl)=C(Cl)C(=O)C(Cl)=C1Cl [CHEMBL192627, O=C(C(Cl)=C(C1=O)Cl)C(Cl)=C1Cl] | – | – | – | 20 nM |
| CCOC(=O)c1ccc(NC(=O)CC2SC(=O)N(c3ccccc3)C2=O)cc1 (stereo not drawn) [LON-WEI-4d77710c-74, CCOC(c(cc1)ccc1NC(CC(C(N1c2ccccc2)=O)SC1=O)=O)=O] | – | 2400 nM | – | – |
| O=C(CCl)N1CCN(C(c2ccccc2)c2ccccc2)CC1 [SIM-SYN-f15aaa3a-1, O=C(CCl)N(CC1)CCN1C(c1ccccc1)c1ccccc1] | – | 1980 nM | – | – |
